Results reported in patent US20250319213A1, “FUNCTIONALIZED BISAMINOTHIOL DERIVATIVES, COMPLEXES WITH THESE BISAMINOTHIOL DERIVATIVES AND USE OF SAID COMPLEXES AS DIAGNOSTICS AND THERAPEUTICS” (ABX ADVANCED BIOCHEMICAL COMPOUNDS – BIOMEDIZINISCHE …, priority 2022, published 2025).

Molecular target: T1, PSMA (Homo sapiens, UniProt Q04609)
T1 construct: host or cells: LNCaP human prostate carcinoma cells
Test: Direct binding affinity on LNCaP cells (saturation)
Settings: [99mTc]TcO complex of the listed compound, saturation 0.3-40 nM, 1 h 37° C., mean ± SEM, read-out: Kd [nM] of [99mTc]TcO-complexes
Procedure: Competition, saturation and internalization assays were assessed using the high PSMA expressing human prostate carcinoma cell line LNCaP (ATCC® CRL-1740). The cells were grown as monolayer at 37° C. in a humidified atmosphere comprising 5% CO2 and 95% air in RPMI medium including 10% FCS (Merck KGAA, Germany). After washing the confluent cells twice with phosphate buffered saline (PBS) and detaching them with trypsin/EDTA (0.05%/0.02%), the cells were suspended in medium and counted (Casy TT, Omni Life Science, Germany).
For saturation monolayer of LNCaP cells were seeded, 5×10^4 cells/well in 48-well plates two days before the assay. On the day of saturation, after aspirating the medium, 160 μL of medium (for ^99mTc-labeled radioligand with D-mannitol (1 mg/mL)) were pipetted per well, for non-specific binding samples including 100 μM 2-PMPA. After preincubation for 5 min, 40 μL activity ([^68Ga]Ga-PSMA-11 or ^99mTc-labeled radioligand solution) were added (total volume/well: 200 μL). Eight concentrations ranged between 0.3 and 40 nM.
After 1 hour of incubation at 37° C. both for competition and saturation samples, the supernatants were aspirated and the cells washed twice with cold PBS. The cell lawn was lysed with 500 μL NaOH/SDS (0.1 M/1%) by shaking for 3 to 5 minutes. After transferring the lysates into measuring tubes, the activity of the samples was measured in a gamma counter (2480 Automatic Gamma Counter Wizard 2, Perkin Elmer, USA).
The half maximal inhibitory concentrations (IC50) and the dissociations constants (Kd) were calculated by fitting the data using a nonlinear curve-fitting program (GraphPad Prism 9). With the Kd value of [^68Ga]Ga-PSMA-11 on LNCaP and the known concentration of [^68Ga]Ga-PSMA-11 in the competition assay the inhibition constants (Ki) was also determined with the curve-fitting program.

T1 sequence (Q04609 whole entry): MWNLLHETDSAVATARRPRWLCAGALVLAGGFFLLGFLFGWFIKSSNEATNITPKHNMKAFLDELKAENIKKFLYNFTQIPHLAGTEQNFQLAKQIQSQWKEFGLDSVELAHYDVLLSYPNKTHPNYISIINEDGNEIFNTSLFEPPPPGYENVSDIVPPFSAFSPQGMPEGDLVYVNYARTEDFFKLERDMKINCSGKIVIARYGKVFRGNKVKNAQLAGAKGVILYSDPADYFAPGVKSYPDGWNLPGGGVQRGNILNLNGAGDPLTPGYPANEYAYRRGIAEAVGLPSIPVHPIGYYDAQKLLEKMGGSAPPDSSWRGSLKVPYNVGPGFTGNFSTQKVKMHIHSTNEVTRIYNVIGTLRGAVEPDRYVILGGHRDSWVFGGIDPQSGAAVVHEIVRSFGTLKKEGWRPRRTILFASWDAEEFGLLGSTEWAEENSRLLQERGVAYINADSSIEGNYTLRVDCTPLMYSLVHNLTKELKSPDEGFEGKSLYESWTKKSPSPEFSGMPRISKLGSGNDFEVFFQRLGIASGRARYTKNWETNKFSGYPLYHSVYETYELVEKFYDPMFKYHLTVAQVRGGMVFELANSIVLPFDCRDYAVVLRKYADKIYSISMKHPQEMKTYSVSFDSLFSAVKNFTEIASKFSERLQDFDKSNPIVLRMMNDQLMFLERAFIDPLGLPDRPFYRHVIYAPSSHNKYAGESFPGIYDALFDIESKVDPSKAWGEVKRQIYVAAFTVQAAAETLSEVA

Row | Kd | Structure (SMILES)
1 | 32.1 ± 24.3 nM | CC(C)(S)CNCCN(CCCCC(=O)N[C@@H](Cc1ccccc1)C(=O)N[C@@H](Cc1ccccc1)C(=O)N[C@H](CCCCNC(=O)CCCCCCC(=O)NCCCC[C@H](NC(=O)N[C@@H](CCC(=O)O)C(=O)O)C(=O)O)C(=O)O)CC(C)(C)S [Compound 2]
2 | 4.7 ± 3.2 nM | CC(C)(S)CNCCN(CCCCC(=O)N[C@H](Cc1ccc(O)c(I)c1)C(=O)N[C@H](Cc1ccccc1)C(=O)N[C@H](CCCCNC(=O)CCCCCCC(=O)NCCCC[C@H](NC(=O)N[C@@H](CCC(=O)O)C(=O)O)C(=O)O)C(=O)O)CC(C)(C)S [Compound 4]
3 | 7.3 nM | O=C(O)CC[C@H](NC(=O)N[C@@H](CCCCNC(=O)CCCCCCC(=O)NCCCC[C@@H](NC(=O)[C@H](CCC(=O)O)NC(=O)[C@H](CCC(=O)O)NC(=O)CCC(=O)NCCCN(CCS)CCNCCS)C(=O)O)C(=O)O)C(=O)O [Compound 6]
